# In PubChem BioAssay AID1963837 (Molecular Pharmacology Branch, DTP, NCI, 2024):
# Where “and” joins values, the source holds several entries; their conditions need not be identical. Equal entries are not always repeated.
# System: 843126-344-R-J1-PDC complex spheroid viability
# Assay: Anticancer human tumor 843126-344-R-J1-PDC patient-derived melanoma cell line growth inhibition [POLQ]
# Conditions: for viability, T/C: stronger effect = lower value
# Method: Multicellular complex tumor spheroid response to Polymerase (POL) inhibitors (novobiocin, ART-558, RP6685) in combination with a variety of drugs and investigational agents in selected tumor cell lines
# The POL inhibitors (novobiocin, ART-558, and RP6685) were evaluated both individually and in combination with standard of care and investigational anticancer small molecules within a complex spheroid model of solid tumors. . Complex spheroids include a stromal component modeled by human endothelial cells (HUVEC) and fibroblasts modeled by human mesenchymal stem cells (MSCs). The concentration ranges selected for each drug and investigational agent were based upon clinically achievable concentrations if the clinical Cmax of the agent was known.
# Compounds. The drugs and investigational agents: novobiocin (NSC847541), ART-558 (NSC835418), RP-6685 (NSC848927), peposertib (NSC802822), ceralasertib (NSC780249), elimusertib (NSC800525), camonsertib (NSC841442), AZD-1390 (NSC803789), olaparib (NSC753686), talazoparib (NSC767125), rucaparib (NSC756644), sotorasib (NSC818433), MRTX-1133 (NSC836407), SN-38 (NSC673596), topotecan (NSC609699), epotoside (NSC141540), doxorubicin (NSC123127), gemcitabine (NSC613327), 5-fluorouracil (NSC19893), paclitaxel (NSC125973), vemurafenib (NSC761431), MSA-2 (NSC828583), SN-011 (NSC837082), adavosertib (NSC754352), prexasertib (NSC758257), carboplatin (NSC241240) and oxaliplatin (NSC266046), were obtained from the National Cancer Institute (NCI) Developmental Therapeutics Program Chemical Repository (21). The FDA-approved anticancer drug set is available from the Developmental Therapeutics Program at https://dtp.cancer.gov/organization/dscb/obtaining/. […] The stock solutions were prepared in dimethyl sulfoxide (DMSO, Sigma-Aldrich, St. Louis, MO, cat. D2650), except for the platinum compounds which were prepared in saline (Quality Biological, Gaithersburg, MD, cat. 114-055-101), at 800-fold the tested concentration and stored at -70 degrees C prior to their use. All drugs and investigational agents were tested over a range starting from a high concentration at or near the clinical Cmax and decreasing in half-log increments. If the clinical Cmax for an agent had not been determined, the highest concentration tested was 10 microM, except for SN-38, which was tested at a high concentration of 1 microM.
# Cell Culture. All cells were maintained in an incubator at 37 degrees C and 5% CO2 with 95% humidity. The PDC lines were cultured according to standard operating procedures established by the NCI PDMR (https://pdmr.cancer.gov). Table 3 of the manuscript, lists the cell lines along with the number of the three cell types plated to form the mct-spheroids and media for tumor cell growth. After thawing, all PDC lines, except 997537-175-T-J1-PDC and 415267-285-R-J2-PDC, were cultured in Matrigel-coated flasks prepared with a working solution of 1X Ham's F-12 nutrient mix, without supplementation (Thermo Fisher Scientific, cat. 11765054), 100 U/mL penicillin-streptomycin (Thermo Fisher Scientific, cat. 15140122), and 2.5% Matrigel (Corning Inc., Corning, NY, cat. 354248) for the first three passages. The two PDC lines 997537-175-T-J1-PDC and 415267-285-R-J2-PDC were cultured on uncoated flasks. The 857933-349-R-J2-PDC line was cultured in 6C/Colon 1B media containing advanced DMEM/F-12 (Thermo Fisher Scientific, cat. 12634028), 10 mM HEPES (Thermo Fisher Scientific, cat. 15630080), 1X GlutaMAX supplement (Thermo Fisher Scientific, cat. 35050061), 0.1 mg/mL primocin (InvivoGen, San Diego, CA, cat. ant-pm-2), 10% defined fetal bovine serum, heat inactivated (HyClone Laboratories Inc., Logan, UT, cat. SH30070.03HI), 50% L-WRN conditioned media (ATCC, cat. CRL-3276), 1.25 mM N-Acetyl-L-cysteine (Sigma-Aldrich, cat. A9165), 10 mM nicotinamide (Sigma-Aldrich, cat. N0636), 1X B-27 supplement (Thermo Fisher Scientific, cat. 17504044), 1X N-2 supplement (Thermo Fisher Scientific, cat. […]
# 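For viability, T/C in this document: spheroids exposed to drugs for seven days before readout.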
structure (smiles),measurement,setting,value
C=CCn1c(=O)c2cnc(Nc3ccc(N4CCN(C)CC4)cc3)nc2n1-c1cccc(C(C)(C)O)n1,"viability, T/C",compound 0.00316 µM,101% and 96.6% and 95.3%
same,"viability, T/C",compound 0.01 µM,89.5% and 86.3% and 96.3%
same,"viability, T/C",compound 0.0316 µM,95.7% (2×) and 111%
same,"viability, T/C",compound 0.1 µM,109% and 97.8% and 99.3%
same,"viability, T/C",compound 0.316 µM,91.6% and 93.7% and 98.2%
same,"viability, T/C",compound 1 µM,81.1% and 78.6% and 82.7%
same,IC50,curve of compound,> 1 µM
COc1cc(C2c3cc4c(cc3C(OC3OC5COC(C)OC5C(O)C3O)C3COC(=O)C23)OCO4)cc(OC)c1O (centres undefined) + COC1C(OC(N)=O)C(O)C(Oc2ccc3c(O)c(NC(=O)c4ccc(O)c(CC=C(C)C)c4)c(=O)oc3c2C)OC1(C)C,IC50,"curve of first compound, second compound 0.0316 µM",> 10 µM
same,IC50,"curve of first compound, second compound 0.1 µM",> 10 µM
same,IC50,"curve of first compound, second compound 0.316 µM",> 10 µM
same,IC50,"curve of first compound, second compound 1 µM",9.06 µM
same,IC50,"curve of first compound, second compound 3.16 µM",> 10 µM
same,IC50,"curve of first compound, second compound 10 µM",7.76 µM
same,"viability, T/C","second compound 0.0316 µM, first compound 0.0316 µM",86%
same,"viability, T/C","second compound 0.0316 µM, first compound 0.1 µM",89.4%
same,"viability, T/C","second compound 0.0316 µM, first compound 0.316 µM",95.3%
same,"viability, T/C","second compound 0.0316 µM, first compound 1 µM",79.8%
same,"viability, T/C","second compound 0.0316 µM, first compound 3.16 µM",57%
same,"viability, T/C","second compound 0.0316 µM, first compound 10 µM",50.8%
same,"viability, T/C","second compound 0.1 µM, first compound 0.0316 µM",102%
same,"viability, T/C","second compound 0.1 µM, first compound 0.1 µM",91.3%
same,"viability, T/C","second compound 0.1 µM, first compound 0.316 µM",88.2%
same,"viability, T/C","second compound 0.1 µM, first compound 1 µM",86%
same,"viability, T/C","second compound 0.1 µM, first compound 3.16 µM",60%
same,"viability, T/C","second compound 0.1 µM, first compound 10 µM",54.5%
same,"viability, T/C","second compound 0.316 µM, first compound 0.0316 µM",98%
same,"viability, T/C","second compound 0.316 µM, first compound 0.1 µM",89.3%
same,"viability, T/C","second compound 0.316 µM, first compound 0.316 µM",97.5%
same,"viability, T/C","second compound 0.316 µM, first compound 1 µM",83.6%
same,"viability, T/C","second compound 0.316 µM, first compound 3.16 µM",60.7%
same,"viability, T/C","second compound 0.316 µM, first compound 10 µM",52.1%
same,"viability, T/C","second compound 1 µM, first compound 0.0316 µM",81.8%
same,"viability, T/C","second compound 1 µM, first compound 0.1 µM",82.6%
same,"viability, T/C","second compound 1 µM, first compound 0.316 µM",97%
same,"viability, T/C","second compound 1 µM, first compound 1 µM",82.1%
same,"viability, T/C","second compound 1 µM, first compound 3.16 µM",78.9%
same,"viability, T/C","second compound 1 µM, first compound 10 µM",47.3%
same,"viability, T/C","second compound 3.16 µM, first compound 0.0316 µM",85.8%
same,"viability, T/C","second compound 3.16 µM, first compound 0.1 µM",93.6%
same,"viability, T/C","second compound 3.16 µM, first compound 0.316 µM",89.5%
same,"viability, T/C","second compound 3.16 µM, first compound 1 µM",91%
same,"viability, T/C","second compound 3.16 µM, first compound 3.16 µM",64.4%
same,"viability, T/C","second compound 3.16 µM, first compound 10 µM",57.8%
same,"viability, T/C","second compound 10 µM, first compound 0.0316 µM",114%
same,"viability, T/C","second compound 10 µM, first compound 0.1 µM",96.3%
same,"viability, T/C","second compound 10 µM, first compound 0.316 µM",91.8%
same,"viability, T/C","second compound 10 µM, first compound 1 µM",85.1%
same,"viability, T/C","second compound 10 µM, first compound 3.16 µM",58.5%
same,"viability, T/C","second compound 10 µM, first compound 10 µM",47.2%
